According to ChEMBL document CHEMBL1131876, “Revised structure of a homonojirimycin isomer from Aglaonema treubii: first example of a naturally occurring alpha-homoallonojirimycin” (Bioorg Med Chem Lett, 1999):

How the values were obtained:
Alpha-galactosidase A = biological target: T1, Alpha-galactosidase A (Rattus norvegicus, UniProt D3ZJF9); assay: Inhibitory activity against alpha-galactosidase from rat epididymis.
T1 sequence (D3ZJF9 whole entry): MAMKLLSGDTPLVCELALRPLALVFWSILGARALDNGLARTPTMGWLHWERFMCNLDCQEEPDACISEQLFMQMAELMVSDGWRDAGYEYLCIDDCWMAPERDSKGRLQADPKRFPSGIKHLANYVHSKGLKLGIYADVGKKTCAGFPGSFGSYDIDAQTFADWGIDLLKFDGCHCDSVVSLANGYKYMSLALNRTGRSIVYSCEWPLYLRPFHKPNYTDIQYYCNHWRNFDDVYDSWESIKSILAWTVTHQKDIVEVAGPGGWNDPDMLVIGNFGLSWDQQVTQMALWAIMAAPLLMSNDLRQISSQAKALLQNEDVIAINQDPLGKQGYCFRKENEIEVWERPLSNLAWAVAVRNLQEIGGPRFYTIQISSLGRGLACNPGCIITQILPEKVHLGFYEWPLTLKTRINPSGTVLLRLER

Beta-galactosidase = biological target: T2, Beta-galactosidase (Bos taurus, UniProt Q58D55); assay: Inhibitory activity against beta-galactosidase from bovine liver
T2 sequence (Q58D55 whole entry): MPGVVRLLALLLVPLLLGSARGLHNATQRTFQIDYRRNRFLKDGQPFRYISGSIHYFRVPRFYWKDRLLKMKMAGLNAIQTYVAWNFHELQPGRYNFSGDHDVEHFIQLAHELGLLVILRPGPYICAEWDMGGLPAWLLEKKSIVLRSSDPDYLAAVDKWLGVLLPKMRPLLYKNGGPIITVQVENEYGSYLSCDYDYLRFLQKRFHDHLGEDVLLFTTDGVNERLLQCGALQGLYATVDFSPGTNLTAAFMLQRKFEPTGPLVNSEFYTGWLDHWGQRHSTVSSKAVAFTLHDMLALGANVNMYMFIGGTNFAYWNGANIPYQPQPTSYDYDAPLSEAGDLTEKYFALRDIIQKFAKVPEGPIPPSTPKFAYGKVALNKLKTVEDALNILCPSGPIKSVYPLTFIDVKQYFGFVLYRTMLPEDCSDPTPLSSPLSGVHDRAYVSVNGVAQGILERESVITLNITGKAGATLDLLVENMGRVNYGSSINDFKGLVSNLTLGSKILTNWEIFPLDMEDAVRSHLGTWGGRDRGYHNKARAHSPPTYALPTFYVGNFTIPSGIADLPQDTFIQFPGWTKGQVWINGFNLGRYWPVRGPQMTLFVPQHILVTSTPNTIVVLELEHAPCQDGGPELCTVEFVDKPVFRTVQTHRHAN

Row | IC50 (Alpha-galactosidase A) | IC50 (Beta-galactosidase) | SMILES
1 | 67 µM | 160 µM | OC[C@H]1N[C@H](CO)[C@@H](O)[C@@H](O)C1O (single isomer, unassigned)
2 | 4.5 µM |  | OCC1NC(CO)[C@H](O)[C@@H](O)[C@@H]1O (stereo partly drawn)
